We go through 57 molecules from patent publication US12606528B2, “Methods and materials for inhibiting NF-kB activity” (University of Pittsburgh - Of the Commonwealth System of …, priority 2019, dated 2026).

One experiment concerns NF-κB. Kind of experiment: NF-κB assay: THP1-NF-κB-LUC cells, LPS-stimulated secreted luciferase. Format: cell-based. The note with it: THP1-NF-κB-LUC cells, LPS-stimulated; read-out: IC50 (NF-κB assay). As for the experimental part: FIG. 1 contains line plots showing NF-κB activity of exemplified compounds. 25k THP1-NF-κB-LUC cells were dispensed into 384 well plate (per well). Cells were treated with compounds (2 μM and 0.2 μM) for 2 hours before addition of LPS (10 ng/mL) for 18 hours. Secreted luciferase activity were measured using quant-luc reagents (1 bag of luc reagent dilute to 40 mL, use 10 μL per well). Data were normalized to vehicle control and graphed. Structures of selected exemplified compounds are shown.
FIG. 2 contains heat charts showing NF-κB activity of exemplified compounds as a function of concentration. 25k THP1-NF-κB-LUC cells were dispensed into 384 well plate (per well). Cells were treated with compounds (with serial dilution) for 2 hours before addition of LPS (10 ng/ml) for 18 hours. Secreted luciferase activity were measured using quant-luc reagents (1 bag of luc reagent dilute to 40 mL, use 10 μL per well). Structures of selected exemplified compounds are shown.
25k THP1-NF-κB-LUC cells were dispensed into 384 well plate (per well). Cells were treated with compounds with various concentrations for 2 hours before addition of LPS (10 ng/mL) for 18 hours. Secreted luciferase activity were measured using quant-luc reagents (1 bag of luc reagent dilute to 40 mL, use 10 μL per well). Data were normalized to vehicle control and graphed. Compound IC50 towards inhibiting NF-κB were determined through Prism. Similarly, 10k human PBMCs cells were cultured in 384 well plate (per well). Cells were treated with compounds with various concentrations for 2 hours before addition of LPS (10 ng/ml) for 18 hours, and supernatants were collected and assayed for TNF ELISA. Compound IC50 towards inhibiting TNF release were determined through Prism. • Activity: “+”>10 μM, “++”>1 μM and <10 μM, “+++”>0.1 μM and <1 μM, “++++”<0.1 μM.
With `CCN(CC)C(=O)c1ccc2nc(-c3ccccc3)c(-c3ccccc3)nc2c1` [BC18400], the IC50 (in general, the concentration at which inhibition is half-maximal) was less than 100 nM. Same read-out and setting: then `CCOc1ccccc1CNC(=O)c1ccc2nc(-c3ccc(F)cc3)c(-c3ccc(F)cc3)nc2c1` [BC18401], with 100 to 1000 nM. On the same count and under the same terms, under `CCCNC(=O)c1ccc2nc(-c3cccc(C)c3)c(-c3cccc(C)c3)nc2c1` [BC18402] stands 1000 to 10000 nM; under `CC(C)NC(=O)c1ccc2nc(-c3ccc(F)cc3)c(-c3ccc(F)cc3)nc2c1` [BC18403], less than 100 nM; under `CCOCCCNC(=O)c1ccc2nc(-c3ccc(F)cc3)c(-c3ccc(F)cc3)nc2c1` [BC18404], less than 100 nM. On the same count and under the same terms, then `O=C(NCc1cccnc1)c1ccc2nc(-c3ccccc3)c(-c3ccccc3)nc2c1` [BC18405], with less than 100 nM. With `CCC1CCN(CCNC(=O)c2ccc3nc(-c4ccccc4)c(-c4ccccc4)nc3c2)CC1` [BC18406], the half-inhibitory concentration (IC50) is less than 100 nM. On the same count and under the same terms, under `CNC(=O)c1ccc2nc(-c3cccc(C)c3)c(-c3cccc(C)c3)nc2c1` [BC18407] stands 1000 to 10000 nM; under `COc1cccc(CNC(=O)c2ccc3nc(-c4ccc(F)cc4)c(-c4ccc(F)cc4)nc3c2)c1` [BC18408], 100 to 1000 nM. Turning to `O=C(c1ccc2nc(-c3ccccc3)c(-c3ccccc3)nc2c1)N1CCCC1` [BC18409], the IC50 is less than 100 nM.

On to `O=C(NCc1ccccn1)c1ccc2nc(-c3ccccc3)c(-c3ccccc3)nc2c1` [BC18410], for which the IC50 is less than 100 nM. `CCOc1ccc(-c2nc3ccc(C(=O)NCCN(CC)CC)cc3nc2-c2ccc(OCC)cc2)cc1` [BC18411]: the half-maximal inhibitory concentration (IC50) fell in the range of 1000 to 10000 nM. Turning to `O=C(c1ccc2nc(-c3ccccc3)c(-c3ccccc3)nc2c1)N1CCN(c2ccccc2)CC1` [BC18412], the IC50 fell in the range of 1000 to 10000 nM. For the molecule `CSc1ccc(CNC(=O)c2ccc3nc(-c4ccc(F)cc4)c(-c4ccc(F)cc4)nc3c2)cc1` [BC18413], the IC50 fell in the range of 100 to 1000 nM.

On to `Cc1cccc(-c2nc3ccc(C(=O)NCc4ccc(F)cc4)cc3nc2-c2cccc(C)c2)c1` [BC18414], for which the IC50 is more than 10000 nM.

As for `CCCNC(=O)c1ccc2nc(-c3ccc(F)cc3)c(-c3ccc(F)cc3)nc2c1` [BC18415], the IC50 is less than 100 nM.

Still in this experiment, the particulars now being: THP1-NF-κB-LUC cells; compounds 2 hours before LPS (10 ng/mL) for 18 hours; secreted luciferase; read-out: IC50 (NF-κB assay).
Take `N#Cc1ccc2c(=O)c(S(=O)(=O)c3ccc(F)c(Cl)c3)c[nH]c2c1` [BC18300]: the IC50 lay in the range of 100 to 1000 nM. The same measure, in the same setting: under `O=c1c(S(=O)(=O)c2cccc(F)c2)c[nH]c2c(F)cccc12` [BC18301] stands 1000 to 10000 nM; under `Cc1ccc(S(=O)(=O)c2c[nH]c3cc(Cl)ccc3c2=O)cc1F` [BC18302], less than 100 nM; under `Cc1ccc(S(=O)(=O)c2c[nH]c3ccc(F)cc3c2=O)cc1F` [BC18303], less than 100 nM. On the same count and under the same terms, under `O=c1c(S(=O)(=O)c2cc(Cl)cc(Cl)c2)c[nH]c2ccc(Cl)cc12` [BC18304] stands 1000 to 10000 nM; under `N#Cc1ccc2[nH]cc(S(=O)(=O)c3cc(Cl)cc(Cl)c3)c(=O)c2c1` [BC18305], 100 to 1000 nM; under `N#Cc1ccc(S(=O)(=O)c2c[nH]c3ccc(F)cc3c2=O)cc1` [BC18306], more than 10000 nM. On the same count and under the same terms, under `COc1ccc2[nH]cc(S(=O)(=O)c3ccc(C)c(F)c3)c(=O)c2c1` [BC18307] stands 100 to 1000 nM; under `COc1ccc2[nH]cc(S(=O)(=O)c3cc(Cl)cc(Cl)c3)c(=O)c2c1` [BC18308], more than 10000 nM; under `COc1ccc(S(=O)(=O)c2c[nH]c3cc(F)ccc3c2=O)cc1` [BC18309], 1000 to 10000 nM.

As for `N#Cc1cccc(S(=O)(=O)c2c[nH]c3cc(C#N)ccc3c2=O)c1` [BC18310], the IC50 was less than 100 nM. `Cc1ccc2[nH]cc(S(=O)(=O)c3ccc(C#N)cc3)c(=O)c2c1` [BC18311]: the IC50 is more than 10000 nM. On the same count and under the same terms, under `COc1ccc2[nH]cc(S(=O)(=O)c3ccc(C#N)cc3)c(=O)c2c1` [BC18312] stands more than 10000 nM.

Turning to `Cc1ccc(S(=O)(=O)c2cc3cc(Cl)ccc3oc2=O)cc1Cl` [BC18313], the IC50 is more than 10000 nM. Same read-out and setting: then `Cc1ccc(S(=O)(=O)c2cc3cc(Br)ccc3oc2=O)cc1Cl` [BC18314], with more than 10000 nM; and `Cc1cc(C)c(S(=O)(=O)c2ccc(Br)cc2)c(=O)[nH]1` [BC18315], with more than 10000 nM. For the molecule `COc1ccc2cc(S(=O)(=O)c3ccc(C)c(Cl)c3)c(=O)oc2c1` [BC18316], the half-inhibitory concentration (IC50) was more than 10000 nM.

Consider `N#Cc1cccc(S(=O)(=O)c2cc3cc(Br)ccc3oc2=O)c1` [BC18317], for which the IC50 was more than 10000 nM. On the same count and under the same terms, then `CCc1ccc(C(=O)C2=CN(c3ccccc3)c3ccc(F)cc3S2(=O)=O)cc1` [BC18318], with more than 10000 nM; and `COc1cccc2cc(S(=O)(=O)c3ccc(C)c(Cl)c3)c(=O)oc12` [BC18319], with more than 10000 nM. With `CCc1ccc(S(=O)(=O)c2c[nH]c3cc(F)c(F)cc3c2=O)cc1` [BC18320], the IC50 was less than 100 nM.

As for `CCc1ccc(S(=O)(=O)c2c[nH]c3ccc(F)cc3c2=O)cc1` [BC18321], the IC50 lay within 100 to 1000 nM. Still for that read-out and setting: under `CC(C)(C)c1ccc(S(=O)(=O)c2c[nH]c3ccc(Br)cc3c2=O)cc1` [BC18322] stands 1000 to 10000 nM; under `CCOc1ccc2[nH]cc(S(=O)(=O)c3ccc(CO)cc3)c(=O)c2c1` [BC18323], 100 to 1000 nM. Consider `Cc1ccc(S(=O)(=O)c2cn(C)c3cc(F)c(F)cc3c2=O)cc1` [BC18324], for which the IC50 was more than 10000 nM. With `CCn1cc(S(=O)(=O)c2ccc(C)cc2)c(=O)c2cc(F)ccc21` [BC18325], the IC50 is more than 10000 nM. On the same count and under the same terms, then `CCc1ccc2c(c1)c(=O)c(S(=O)(=O)c1ccc(C)cc1)cn2C` [BC18326], with more than 10000 nM; and `CCOc1ccc2c(c1)c(=O)c(S(=O)(=O)c1ccc(Cl)cc1)cn2C` [BC18327], with more than 10000 nM; and `Cc1ccc(S(=O)(=O)c2cn(Cc3cccc(C)c3)c3ccc(F)cc3c2=O)cc1` [BC18328], with 1000 to 10000 nM.

`COc1ccc(S(=O)(=O)c2cn(CC(=O)Nc3ccc(C)cc3)c3ccc(Cl)cc3c2=O)cc1` [BC18329]: the IC50 was more than 10000 nM. Same read-out and setting: under `COc1ccc(S(=O)(=O)c2cn(CC(=O)Nc3ccc(C)cc3)c3ccc(F)cc3c2=O)cc1` [BC18330] stands more than 10000 nM; under `CCc1ccc(S(=O)(=O)c2cn(CCO)c3cc(F)c(F)cc3c2=O)cc1` [BC18331], more than 10000 nM. Still for that read-out and setting: under `COc1ccc(S(=O)(=O)c2cn(CC(=O)Nc3ccccc3)c3ccc(F)cc3c2=O)cc1` [BC18332] stands more than 10000 nM; under `COc1cc2c(=O)c(S(=O)(=O)c3ccc(Cl)cc3)cn(Cc3ccccc3F)c2cc1OC` [BC18333], more than 10000 nM. Same read-out and setting: under `COc1ccc(S(=O)(=O)c2cn(CC(=O)Nc3ccc(Cl)cc3)c3ccc(C)cc3c2=O)cc1` [BC18334] stands more than 10000 nM. On to `COc1ccc(S(=O)(=O)c2cn(CC(=O)Nc3ccc(F)cc3)c3ccc(C)cc3c2=O)cc1` [BC18335], for which the 50% inhibitory concentration (IC50) is more than 10000 nM. Turning to `CCCCn1cc(S(=O)(=O)c2ccc(C)cc2)c(=O)c2cc(Cl)ccc21` [BC18336], the IC50 was more than 10000 nM.

For `COc1cc2c(=O)c(S(=O)(=O)c3ccccc3)cn(Cc3cccc(Cl)c3)c2cc1OC` [BC18337], the IC50 was more than 10000 nM. Same read-out and setting: then `COc1ccc2[nH]cc(S(=O)(=O)c3ccc(OC)c(OC)c3)c(=O)c2c1` [BC18338], with more than 10000 nM; and `N#Cc1ccc(S(=O)(=O)c2c[nH]c3cc(F)ccc3c2=O)cc1F` [BC18339], with 100 to 1000 nM. Still for that read-out and setting: under `O=c1c(S(=O)(=O)c2ccc(F)c(F)c2)c[nH]c2c(F)ccc(Cl)c12` [BC18340] stands less than 100 nM.
